Data on 1 molecule can be found in article PMC8635542, “Pharmacokinetic study on the interaction between succinic acid and irbesartan in rats and its potential mechanism” (Pharmaceutical Biology, 2021).

The assay concerns T1, CYP2C9.
T1 construct: gene Cyp2c6
To be noted: diclofenac as substrate, NADPH-regenerating system (G-6-P, NADP+, G-6-PDH), MgCl2; succinic acid 0-100 μM.

pIC50: −log10 of the molar value.

`O=C(O)CCC(=O)O` [succinic acid]: the pIC50 is 4.86.

One may read the pIC50 as the negative decadic logarithm of the IC50, by convention in mol/L. A low value points to a large IC50.
